From patent publication US9840498B2, “Substituted quinazolin-4-one derivatives” (NOVARTIS AG, priority 2013, dated 2017)

Assays:
[1] = target: human phosphoinositide-3 kinase (PI3K) delta (Homo sapiens (Human), UniProt O00329); assay: PI3K-mediated Akt 1/2 (S473) phosphorylation in Rat-1 cells overexpressing PI3K delta; type: cell-based; conditions: cellular assay, p-AKT(Ser473), read-out: Cell PI3K delta IC50
Description: (§1) 2.1 Phosphoinositide-3 kinase (PI3K)-Mediated Akt 1/2 (S473) Phosphorylation in Rat-1 Cells
(§2) Rat-1 cells stably overexpressing a myristoylated form of the catalytic subunit of human phosphoinositide-3 kinase (PI3K) alpha, beta or delta were plated in 384-well plates at a density of 7500 (PI3K alpha), 6200 (PI3K beta), or 4000 (PI3K delta) cells in 30 ul complete growth medium (Dulbecco's modified Eagle's medium (DMEM high glucose) supplemented with 10% (v/v) fetal bovine serum, 1% (v/v) MEM non essential amino acids, 10 mM HEPES, 2 mM L-glutamine, 10 μg/mL puromycin and 1% (v/v) Penicillin/Streptomycin) and were incubated at […]/5% CO2/95% humidity for 24 h. Compounds were diluted in 384-well compound plates (compound master plates), to obtain 8-point serial dilutions for 40 test compounds in 90% DMSO, as well as 4 reference compounds plus 16 high controls and 16 low (inhibited) controls. Predilution plates were prepared by dispensing pipetting 250 nl of compound solutions into 384-well polypropylen plates (daugther plates), using a Hummingwell nanoliter dispenser. Compounds were prediluted by the addition of 49.75 ul complete growth medium. 10 ul of prediluted compound solution were transferred to the cell plate using a 384-well pipettor, resulting in a final DMSO concentration of 0.11%. Cells were incubated for 1 h at […]/5% CO2/95% humidity. The supernatant was removed, the cells were lysed in 20 ul of lysis buffer for AlphaScreen® SureFire® detection.
(§3) For detection of p-AKT(Ser473), the SureFire® p-Akt 1/2 (Ser473) Assay Kit (PerkinElmer, U.S.A.) was used. 5 ul of cell lysate was transferred to 384-well low volume Proxiplates for detection using a 384-well pipettor. Addition of AlphaScreen® SureFire® reagents was done according to the manufacturer's protocol. First, 5 ul of reaction buffer plus activation buffer mix containing AlphaScreen® acceptor beads was added, the plate was sealed, and incubated on a plate shaker for 2 hours at room temperature. Second, 2 ul of dilution buffer containing AlphaScreen® donor beads was added, and the plate was incubated on plate shaker as above for a further 2 hours. The plate was read on an AlphaScreen® compatible plate reader, using standard AlphaScreen® settings. Alternatively, p-AKT(Ser473) was detected with the CisBio HTRF Assay Kit: As positive control, 0.9 mM of 1-(3-(trifluoromethyl)-4-(piperazin-1-yl)phenyl)-8-(6-methoxypyridin-3-yl)-3-methyl-1H-imidazo[4,5-c]quinolin-2(3H)-one maleic acid salt in 90% (v/v) DMSO was added to the compound master plate. For compound testing, the cells were seeded at a density of 4000 (Rat-1_PI3Kdelta), 8000 (Rat-1_PI3Kalpha), or 6500 (Rat-1_PI3Kbeta) cells in 30 ul complete growth medium into 384-well plates, with a plastic surface promoting the adhesion of cells and their growth (assay plates) and were grown at 37° C./5% CO2/90% humidity for 24 h. Some 10 ul of the compound predilutions from the daughter plate were then transferred to the cells. After treatment with compound for 1 h, medium was removed and cells were lysed by the addition of 20 ul lysis buffer supplemented with blocking buffer. Detection of p-AKT(Ser473) was performed with the HTRF pAKT (Ser473) assay kit according to the manufacturer's instructions using 16 ul of cell lysate in a total detection volume of 20 ul.

[2] = target: human phosphoinositide-3 kinase (PI3K) alpha (Homo sapiens (Human), UniProt P42336); assay: PI3K-mediated Akt 1/2 (S473) phosphorylation in Rat-1 cells overexpressing PI3K alpha; type: cell-based, rat cells expressing human PI3K alpha; conditions: cellular assay, p-AKT(Ser473), read-out: Cell PI3K alpha IC50
Description: as §1, §2, §3

[3] = target: PI3K alpha (Homo sapiens (Human), UniProt P42336); assay: Biochemical assay for PI3Kalpha (Kinase-Glo format); conditions: enzymatic assay
Description: 1.1 Generation of Gene Constructs, Protein Expression and Purification
For the enzymatic assays, the preparation of PI3K gene constructs, protein expression and purification for HTS are described in WO2012/004299.
1.2 Biochemical Assays for PI3Kalpha, PI3Kbeta (Kinase-Glo Format)
The kinase reaction is performed in a final volume of 50 μl per well of a half area COSTAR, 96 well plate. The final concentrations of ATP and phosphatidyl inositol in the assay are 5 μM and 6 μg/mL, respectively. The reaction is started by the addition of PI3 kinase, e.g. PI3 kinase α.
The components of the assay are added per well as follows: • 10 μl test compound in 5% DMSO per well in […]. • Total activity is determined by addition 10 μl of 5% vol/vol DMSO in the first 4 wells of column 1 and the last 4 wells of column 12. • The background is determined by addition of 10 μM control compound to the last 4 wells of column 1 and the first 4 wells of column 12. • 2 mL ‘Assay mix’ are prepared per plate: • 1.912 mL of HEPES assay buffer • 8.33 μl of 3 mM stock of ATP giving a final concentration of 5 μM per well • 1 μl of [^33P]ATP on the activity date giving 0.05 μCi per well • 30 μl of 1 mg/mL PI stock giving a final concentration of 6 μg/mL per well • 5 μl of 1 M stock MgCl2 giving a final concentration of 1 mM per well • 20 μl of the assay mix are added per well. • 2 mL ‘Enzyme mix’ are prepared per plate (x* μl PI3 kinase p110α in 2 mL of kinase buffer). The ‘Enzyme mix’ is kept on ice during addition to the assay plates. * The volume of enzyme is dependent on the enzymatic activity of the batch in use. • 20 μl ‘Enzyme mix’ are added/well to start the reaction. • The plate is then incubated at room temperature for 90 minutes. • The reaction is terminated by the addition of 50 μl WGA-SPA bead (wheat germ agglutinin-coated Scintillation Proximity Assay beads) suspension per well. • The assay plate is sealed using TopSeal-S (heat seal for polystyrene microplates, PerkinElmer LAS [Deutschland] GmbH, Rodgau, Germany) and incubated at room temperature for at least 60 minutes. • The assay plate is then centrifuged at 1500 rpm for 2 minutes using the Jouan bench top centrifuge (Jouan Inc., Nantes, France). • The assay plate is counted using a Packard TopCount, each well being counted for 20 seconds.
In a more preferred assay, the kinase reaction is performed in a final volume of 10 μl per well of a low volume non-binding CORNING, 384 well black plate (Cat. No. #3676). The final concentrations of ATP and phosphatidyl inositol (PI) in the assay are 1 μM and 10 μg/mL, respectively. The reaction is started by the addition of ATP.
The components of the assay are added per well as follows: […]

PI3K alpha, sequence (P42336 21-1068): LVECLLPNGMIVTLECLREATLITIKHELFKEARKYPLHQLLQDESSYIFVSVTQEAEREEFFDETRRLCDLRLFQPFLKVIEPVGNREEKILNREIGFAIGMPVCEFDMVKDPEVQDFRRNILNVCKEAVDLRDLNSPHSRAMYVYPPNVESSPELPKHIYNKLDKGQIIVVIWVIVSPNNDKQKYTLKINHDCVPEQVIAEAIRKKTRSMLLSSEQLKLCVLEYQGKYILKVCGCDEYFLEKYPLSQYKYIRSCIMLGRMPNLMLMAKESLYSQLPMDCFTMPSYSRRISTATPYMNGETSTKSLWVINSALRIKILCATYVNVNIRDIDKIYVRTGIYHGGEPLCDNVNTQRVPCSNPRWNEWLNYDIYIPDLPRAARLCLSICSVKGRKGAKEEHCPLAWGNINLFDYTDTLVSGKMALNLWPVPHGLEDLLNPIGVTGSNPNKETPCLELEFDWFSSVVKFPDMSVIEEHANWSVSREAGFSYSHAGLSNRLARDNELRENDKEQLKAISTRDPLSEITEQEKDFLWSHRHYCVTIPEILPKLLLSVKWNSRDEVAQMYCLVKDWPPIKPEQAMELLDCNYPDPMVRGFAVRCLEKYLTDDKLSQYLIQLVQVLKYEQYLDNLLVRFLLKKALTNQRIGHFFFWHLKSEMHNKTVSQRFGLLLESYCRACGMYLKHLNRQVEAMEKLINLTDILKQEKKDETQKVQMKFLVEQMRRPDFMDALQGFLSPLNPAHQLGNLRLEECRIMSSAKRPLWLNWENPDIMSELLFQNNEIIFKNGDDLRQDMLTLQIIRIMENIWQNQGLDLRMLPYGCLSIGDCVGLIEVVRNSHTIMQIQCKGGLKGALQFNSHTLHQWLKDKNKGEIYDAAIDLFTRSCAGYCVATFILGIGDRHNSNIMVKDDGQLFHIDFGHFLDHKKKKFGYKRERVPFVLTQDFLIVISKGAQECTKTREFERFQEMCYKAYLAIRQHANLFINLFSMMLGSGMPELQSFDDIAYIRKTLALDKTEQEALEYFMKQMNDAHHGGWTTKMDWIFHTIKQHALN
PI3K alpha, sequence (P27986 461-568 partner): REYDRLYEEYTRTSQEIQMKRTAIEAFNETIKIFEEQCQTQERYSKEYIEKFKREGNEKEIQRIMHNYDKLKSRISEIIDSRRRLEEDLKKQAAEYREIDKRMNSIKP
human phosphoinositide-3 kinase (PI3K) delta, sequence (O00329 whole entry): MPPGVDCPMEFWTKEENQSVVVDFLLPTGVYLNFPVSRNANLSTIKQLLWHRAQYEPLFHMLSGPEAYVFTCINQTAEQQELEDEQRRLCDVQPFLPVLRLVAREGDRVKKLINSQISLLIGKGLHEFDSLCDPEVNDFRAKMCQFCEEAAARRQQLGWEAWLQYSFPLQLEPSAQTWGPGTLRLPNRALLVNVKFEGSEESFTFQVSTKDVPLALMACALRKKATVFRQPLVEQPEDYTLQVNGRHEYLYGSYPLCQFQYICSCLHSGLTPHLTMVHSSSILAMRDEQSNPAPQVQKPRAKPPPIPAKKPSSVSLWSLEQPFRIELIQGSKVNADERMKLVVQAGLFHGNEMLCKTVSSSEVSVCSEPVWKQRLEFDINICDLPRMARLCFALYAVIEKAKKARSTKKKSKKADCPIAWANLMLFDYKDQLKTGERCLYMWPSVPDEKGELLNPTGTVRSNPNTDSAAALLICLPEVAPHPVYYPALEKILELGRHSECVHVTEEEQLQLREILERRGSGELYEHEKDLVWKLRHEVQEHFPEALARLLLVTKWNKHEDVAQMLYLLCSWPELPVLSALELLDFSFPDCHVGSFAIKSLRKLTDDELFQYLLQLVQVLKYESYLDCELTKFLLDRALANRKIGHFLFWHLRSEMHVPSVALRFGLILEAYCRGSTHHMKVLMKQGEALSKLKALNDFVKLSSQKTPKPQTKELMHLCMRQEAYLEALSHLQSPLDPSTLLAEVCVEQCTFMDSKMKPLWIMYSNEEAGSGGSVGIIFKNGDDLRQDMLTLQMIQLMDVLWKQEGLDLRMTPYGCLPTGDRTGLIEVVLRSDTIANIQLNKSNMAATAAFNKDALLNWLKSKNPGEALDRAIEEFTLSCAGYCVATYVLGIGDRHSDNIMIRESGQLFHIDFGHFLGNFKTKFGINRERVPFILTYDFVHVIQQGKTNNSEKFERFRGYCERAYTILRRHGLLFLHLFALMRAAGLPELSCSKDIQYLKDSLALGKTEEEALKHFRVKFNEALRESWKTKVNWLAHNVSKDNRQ
human phosphoinositide-3 kinase (PI3K) delta, sequence (Q63787 whole entry partner): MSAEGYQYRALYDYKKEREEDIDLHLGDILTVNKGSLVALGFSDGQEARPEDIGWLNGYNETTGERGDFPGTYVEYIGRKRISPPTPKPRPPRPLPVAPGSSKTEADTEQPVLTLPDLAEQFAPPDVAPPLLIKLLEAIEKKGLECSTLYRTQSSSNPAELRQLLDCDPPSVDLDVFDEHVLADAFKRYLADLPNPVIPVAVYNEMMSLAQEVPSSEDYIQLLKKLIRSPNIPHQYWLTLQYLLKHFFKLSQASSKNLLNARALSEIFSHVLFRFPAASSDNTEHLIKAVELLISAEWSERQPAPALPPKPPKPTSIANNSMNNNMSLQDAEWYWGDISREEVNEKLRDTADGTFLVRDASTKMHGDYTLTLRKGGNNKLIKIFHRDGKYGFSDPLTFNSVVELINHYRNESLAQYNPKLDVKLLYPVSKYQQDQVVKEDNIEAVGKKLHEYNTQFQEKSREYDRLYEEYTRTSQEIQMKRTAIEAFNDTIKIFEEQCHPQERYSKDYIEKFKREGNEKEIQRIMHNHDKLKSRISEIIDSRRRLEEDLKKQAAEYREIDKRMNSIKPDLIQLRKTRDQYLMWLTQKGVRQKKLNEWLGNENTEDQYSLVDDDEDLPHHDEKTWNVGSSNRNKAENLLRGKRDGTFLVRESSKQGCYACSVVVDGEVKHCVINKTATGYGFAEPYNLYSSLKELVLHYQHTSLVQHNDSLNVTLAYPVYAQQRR
human phosphoinositide-3 kinase (PI3K) alpha, sequence (P42336 whole entry): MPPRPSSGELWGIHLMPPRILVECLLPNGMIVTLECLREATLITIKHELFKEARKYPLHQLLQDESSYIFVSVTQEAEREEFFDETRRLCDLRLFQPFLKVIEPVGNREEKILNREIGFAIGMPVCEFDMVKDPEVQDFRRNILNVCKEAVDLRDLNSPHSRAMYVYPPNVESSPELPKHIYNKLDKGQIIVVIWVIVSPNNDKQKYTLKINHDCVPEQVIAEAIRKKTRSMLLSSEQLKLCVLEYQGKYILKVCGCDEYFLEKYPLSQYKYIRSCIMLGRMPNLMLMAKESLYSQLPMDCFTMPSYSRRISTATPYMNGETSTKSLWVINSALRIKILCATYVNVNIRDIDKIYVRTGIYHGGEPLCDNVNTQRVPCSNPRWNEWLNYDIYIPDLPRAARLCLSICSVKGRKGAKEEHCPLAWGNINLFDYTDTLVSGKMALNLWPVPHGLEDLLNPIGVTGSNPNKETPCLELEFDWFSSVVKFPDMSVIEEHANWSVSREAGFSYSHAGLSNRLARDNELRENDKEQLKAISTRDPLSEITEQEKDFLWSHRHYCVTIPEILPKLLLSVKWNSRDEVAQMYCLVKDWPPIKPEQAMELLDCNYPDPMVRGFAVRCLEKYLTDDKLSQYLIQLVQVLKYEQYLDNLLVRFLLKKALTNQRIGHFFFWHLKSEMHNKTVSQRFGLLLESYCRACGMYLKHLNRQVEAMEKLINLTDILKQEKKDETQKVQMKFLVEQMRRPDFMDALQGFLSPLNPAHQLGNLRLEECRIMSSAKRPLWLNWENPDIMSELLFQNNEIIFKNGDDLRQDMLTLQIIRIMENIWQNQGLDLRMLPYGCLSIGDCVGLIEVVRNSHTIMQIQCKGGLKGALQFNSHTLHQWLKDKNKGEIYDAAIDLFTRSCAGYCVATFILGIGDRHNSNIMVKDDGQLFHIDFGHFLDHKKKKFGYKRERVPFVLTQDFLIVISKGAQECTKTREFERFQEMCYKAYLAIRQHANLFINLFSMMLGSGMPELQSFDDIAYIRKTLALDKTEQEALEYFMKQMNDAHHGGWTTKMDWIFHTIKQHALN
human phosphoinositide-3 kinase (PI3K) alpha, sequence (Q63787 whole entry partner): as the sequence (Q63787 whole entry partner) above

IC50 [1]	IC50 [2]	IC50 [3]	SMILES
< 3 nM	420 nM	56 nM	COc1cncc(-c2cccc3nc([C@@H]4CCCN4c4nc(N)nc(C)c4C#N)n(-c4ccccc4)c(=O)c23)c1 [Example 18, (S)-2-Amino-4-(2-(5-(5-methoxypyridin-3-yl)-4-oxo-3-phenyl-3,4-dihydroquinazolin-2-yl)pyrrolidin-1-yl)-6-methylpyrimidine-5-carbonitrile]
< 3 nM	670 nM	53 nM	COc1ncc(-c2c(F)ccc3nc([C@@H]4C[C@H](O)CN4c4nc(N)nc(C)c4C#N)n(-c4ccccc4)c(=O)c23)s1 [Example 9, 2-Amino-4-((2S,4S)-2-(6-fluoro-5-(2-methoxythiazol-5-yl)-4-oxo-3-phenyl-3,4-dihydroquinazolin-2-yl)-4-hydroxypyrrolidin-1-yl)-6-methylpyrimidine-5-carbonitrile]
28 nM	5900 nM	1200 nM	COc1ncc(-c2cccc3nc([C@@H]4C[C@H](OC)CN4c4nc(N)nc(C)c4C#N)n(-c4ccccc4)c(=O)c23)cn1 [Example 12, 2-Amino-4-((2S,4S)-4-methoxy-2-(5-(2-methoxypyrimidin-5-yl)-4-oxo-3-phenyl-3,4-dihydroquinazolin-2-yl)pyrrolidin-1-yl)-6-methylpyrimidine-5-carbonitrile]
14 nM	6500 nM	620 nM	N#Cc1c(N)ncnc1N1CCC[C@H]1c1nc2cccc(C#CCO)c2c(=O)n1-c1ccccc1 [Example 33, (S)-4-Amino-6-(2-(5-(3-hydroxyprop-1-yn-1-yl)-4-oxo-3-phenyl-3,4-dihydroquinazolin-2-yl)pyrrolidin-1-yl)pyrimidine-5-carbonitrile]
8 nM	2700 nM	180 nM	Cc1nc(N)nc(N2C[C@@H](O)C[C@H]2c2nc3cccc(-c4cnn(C)c4)c3c(=O)n2-c2ccccc2)c1C#N [Example 16, 2-Amino-4-((2S,4S)-4-hydroxy-2-(5-(1-methyl-1H-pyrazol-4-yl)-4-oxo-3-phenyl-3,4-dihydroquinazolin-2-yl)pyrrolidin-1-yl)-6-methylpyrimidine-5-carbonitrile]
6 nM	2700 nM	370 nM	CCOc1ncc(-c2c(F)ccc3nc([C@@H]4C[C@H](O)CN4c4nc(N)nc(C)c4C#N)n(-c4ccccc4)c(=O)c23)cn1 [Example 29, 2-Amino-4-((2S,4S)-2-(5-(2-ethoxypyrimidin-5-yl)-6-fluoro-4-oxo-3-phenyl-3,4-dihydroquinazolin-2-yl)-4-hydroxypyrrolidin-1-yl)-6-methylpyrimidine-5-carbonitrile]
6 nM	1300 nM	86 nM	COc1ccc(-c2cccc3nc([C@@H]4C[C@H](O)CN4c4nc(N)nc(C)c4C#N)n(-c4ccccc4)c(=O)c23)cn1 [Example 27, 2-Amino-4-((2S,4S)-4-hydroxy-2-(5-(6-methoxypyridin-3-yl)-4-oxo-3-phenyl-3,4-dihydroquinazolin-2-yl)pyrrolidin-1-yl)-6-methylpyrimidine-5-carbonitrile]

The next lines start with the molecule.

SMILES	IC50 [1]	IC50 [2]	IC50 [3]
COc1ncc(-c2cccc3nc([C@@H]4CCCN4c4ncnc(N)c4C#N)n(-c4ccccc4)c(=O)c23)cn1 [Example 3, (S)-4-Amino-6-(2-(5-(2-methoxypyrimidin-5-yl)-4-oxo-3-phenyl-3,4-dihydroquinazolin-2-yl)pyrrolidin-1-yl)pyrimidine-5-carbonitrile]	11 nM	6800 nM	1400 nM
Cc1nc(N)nc(N2CCC[C@H]2c2nc3cccc(-c4cccnc4)c3c(=O)n2-c2ccccc2)c1C#N [Example 20, (S)-2-Amino-4-methyl-6-(2-(4-oxo-3-phenyl-5-(pyridin-3-yl)-3,4-dihydroquinazolin-2-yl)pyrrolidin-1-yl)pyrimidine-5-carbonitrile]	< 3 nM	1500 nM	260 nM
COc1ccc(-c2cccc3nc([C@@H]4CCCN4c4nc(N)nc(C)c4C#N)n(-c4ccccc4)c(=O)c23)cn1 [Example 21, (S)-2-Amino-4-(2-(5-(6-methoxypyridin-3-yl)-4-oxo-3-phenyl-3,4-dihydroquinazolin-2-yl)pyrrolidin-1-yl)-6-methylpyrimidine-5-carbonitrile]	13 nM	2500 nM	260 nM
Cc1nc(N)nc(N2C[C@@H](O)C[C@H]2c2nc3ccc(F)c(-c4cnn(C)c4)c3c(=O)n2-c2ccccc2)c1C#N [Example 1, 2-Amino-4-((2S,4S)-2-(6-fluoro-5-(1-methyl-1H-pyrazol-4-yl)-4-oxo-3-phenyl-3,4-dihydroquinazolin-2-yl)-4-hydroxypyrrolidin-1-yl)-6-methylpyrimidine-5-carbonitrile]	3 nM	2200 nM	74 nM
Cc1nc(N)nc(N2CCC[C@H]2c2nc3ccc(F)c(-c4cnn(C)c4)c3c(=O)n2-c2ccccc2)c1C#N [Example 6, (S)-2-Amino-4-(2-(6-fluoro-5-(1-methyl-1H-pyrazol-4-yl)-4-oxo-3-phenyl-3,4-dihydroquinazolin-2-yl)pyrrolidin-1-yl)-6-methylpyrimidine-5-carbonitrile]	5 nM	1400 nM	130 nM
COc1ncc(-c2cccc3nc([C@@H]4CCCN4c4nc(N)nc(C)c4C#N)n(-c4ccccc4)c(=O)c23)cn1 [Example 4, (S)-2-Amino-4-(2-(5-(2-methoxypyrimidin-5-yl)-4-oxo-3-phenyl-3,4-dihydroquinazolin-2-yl)pyrrolidin-1-yl)-6-methylpyrimidine-5-carbonitrile]	< 3 nM	2800 nM	320 nM
